The record followed here is patent US11845935B2, “Regulation of MIR-143 using nucleic acid molecules” (CHILDREN'S HOSPITAL MEDICAL CENTER, priority 2017, dated 2023).

Assay [1] has as its target T1, M6PR (Homo sapiens, UniProt P11717).
T1 construct: endogenous in cells; host or cells: HUVEC (parental, or transduced with LV-143Spg / control LV)
The assay is described as follows: M6P competition of IDUA-myc uptake in hCMEC/D3 cells. The assay is classed as cell-based. The following applies: 1 h exposure to IDUA-myc conditioned medium (~20,000 U/mL), read-out: Median inhibitory concentration (IC50) of IDUA-myc uptake.

The target in assay [2] is T1, M6PR. The assay is described as follows: M6P competition of IDUA-myc uptake in HUVEC. In kind it is cell-based.

T1 sequence (P11717 41-2491): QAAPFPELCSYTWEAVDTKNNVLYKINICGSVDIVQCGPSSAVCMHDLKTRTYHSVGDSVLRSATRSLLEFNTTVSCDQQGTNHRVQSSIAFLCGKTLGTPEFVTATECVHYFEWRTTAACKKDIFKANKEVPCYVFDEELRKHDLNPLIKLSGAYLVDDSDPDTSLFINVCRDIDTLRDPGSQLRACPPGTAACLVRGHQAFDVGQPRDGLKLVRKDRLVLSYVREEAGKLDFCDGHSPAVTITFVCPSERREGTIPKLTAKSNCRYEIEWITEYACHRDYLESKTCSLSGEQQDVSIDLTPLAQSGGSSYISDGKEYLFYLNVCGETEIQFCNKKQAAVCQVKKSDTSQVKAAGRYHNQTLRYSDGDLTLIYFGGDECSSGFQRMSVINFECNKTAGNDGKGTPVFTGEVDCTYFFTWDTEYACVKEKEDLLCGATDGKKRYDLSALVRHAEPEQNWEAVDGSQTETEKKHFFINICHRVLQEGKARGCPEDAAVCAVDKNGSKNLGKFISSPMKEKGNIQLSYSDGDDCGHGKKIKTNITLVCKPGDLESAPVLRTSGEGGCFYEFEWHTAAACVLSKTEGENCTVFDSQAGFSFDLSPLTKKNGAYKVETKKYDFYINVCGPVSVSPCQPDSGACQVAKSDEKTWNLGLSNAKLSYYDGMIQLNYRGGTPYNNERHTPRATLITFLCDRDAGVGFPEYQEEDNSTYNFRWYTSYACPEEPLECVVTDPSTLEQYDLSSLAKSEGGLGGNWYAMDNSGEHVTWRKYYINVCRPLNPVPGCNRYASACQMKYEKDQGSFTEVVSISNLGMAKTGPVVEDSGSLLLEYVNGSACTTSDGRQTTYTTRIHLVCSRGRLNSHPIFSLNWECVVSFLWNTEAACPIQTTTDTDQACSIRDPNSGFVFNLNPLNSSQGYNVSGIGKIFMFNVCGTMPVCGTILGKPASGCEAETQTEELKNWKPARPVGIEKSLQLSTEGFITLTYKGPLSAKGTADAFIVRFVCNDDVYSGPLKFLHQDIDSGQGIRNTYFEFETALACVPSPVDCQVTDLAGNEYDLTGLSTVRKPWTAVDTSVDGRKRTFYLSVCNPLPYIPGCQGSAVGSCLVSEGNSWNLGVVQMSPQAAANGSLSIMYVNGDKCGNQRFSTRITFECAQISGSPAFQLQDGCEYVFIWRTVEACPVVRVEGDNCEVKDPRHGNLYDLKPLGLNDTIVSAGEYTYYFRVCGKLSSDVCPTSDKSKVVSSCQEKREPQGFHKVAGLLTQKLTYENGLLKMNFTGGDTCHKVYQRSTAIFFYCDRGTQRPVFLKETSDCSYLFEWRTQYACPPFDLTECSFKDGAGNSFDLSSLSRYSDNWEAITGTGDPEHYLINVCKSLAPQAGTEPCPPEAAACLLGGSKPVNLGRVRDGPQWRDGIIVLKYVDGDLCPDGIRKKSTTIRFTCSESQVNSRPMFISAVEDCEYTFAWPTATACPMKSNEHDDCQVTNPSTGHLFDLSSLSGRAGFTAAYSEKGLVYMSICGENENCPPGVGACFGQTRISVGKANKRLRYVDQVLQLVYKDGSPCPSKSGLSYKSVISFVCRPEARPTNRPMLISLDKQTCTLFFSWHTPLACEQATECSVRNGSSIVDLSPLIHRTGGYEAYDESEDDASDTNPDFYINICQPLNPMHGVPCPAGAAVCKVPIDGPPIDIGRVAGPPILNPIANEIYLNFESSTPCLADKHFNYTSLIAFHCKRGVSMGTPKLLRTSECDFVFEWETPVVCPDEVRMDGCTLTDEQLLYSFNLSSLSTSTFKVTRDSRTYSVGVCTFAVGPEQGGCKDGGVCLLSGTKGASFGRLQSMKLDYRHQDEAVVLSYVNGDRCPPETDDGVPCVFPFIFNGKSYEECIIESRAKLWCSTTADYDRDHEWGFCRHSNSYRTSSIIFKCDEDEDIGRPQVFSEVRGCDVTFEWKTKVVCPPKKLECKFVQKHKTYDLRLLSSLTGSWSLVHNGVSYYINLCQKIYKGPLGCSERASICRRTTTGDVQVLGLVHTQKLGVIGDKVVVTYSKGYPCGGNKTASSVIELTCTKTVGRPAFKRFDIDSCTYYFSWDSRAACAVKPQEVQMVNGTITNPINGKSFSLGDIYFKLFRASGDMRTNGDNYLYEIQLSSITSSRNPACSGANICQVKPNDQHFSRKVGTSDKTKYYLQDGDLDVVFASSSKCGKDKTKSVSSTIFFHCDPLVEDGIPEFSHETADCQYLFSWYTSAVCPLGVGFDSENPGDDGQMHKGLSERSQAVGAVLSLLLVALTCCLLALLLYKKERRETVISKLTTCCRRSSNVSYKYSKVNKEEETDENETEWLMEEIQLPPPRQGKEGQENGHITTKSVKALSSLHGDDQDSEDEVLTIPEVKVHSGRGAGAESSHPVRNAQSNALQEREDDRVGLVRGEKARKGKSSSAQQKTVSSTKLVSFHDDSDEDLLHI

Regarding `O=C[C@@H](O)[C@@H](O)[C@H](O)[C@H](O)COP(=O)(O)O` [M6P inhibitor, mannose 6-phosphate], the IC50 on M6PR [1] turned out to be 57.2 µM; on M6PR [2] (1 h exposure to IDUA-myc conditioned medium (~20,000 U/mL), read-out: Median inhibitory concentration (IC50) of IDUA-myc uptake), 347 µM. Also, the “M6PR-independent uptake (plateau)” value at M6PR [2] (residual uptake under M6P competition) is approximately 18%.
